Laboratory results published in patent US20220324835A1 (Nurix Therapeutics, Inc., priority 2018, published 2022).

Assays:
Cbl-b [1] = target: T1, Cbl-b (Homo sapiens, UniProt Q13191); experiment: Cbl-b inhibition assay (Cbl-b activity assay, FRET, Biological Example 1; 100 mM NaCl, 60 nM Src kinase); assay type: biochemical; settings: upper bound stated in text lists; read-out: IC50 values in the Cbl-b inhibition assay of Biological Example 1
Outline: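 Inhibitor activity is measured as reduced terbium-to-fluorescein FRET between streptavidin-terbium on biotinylated Cbl-b and Bodipy-fluorescein ubiquitin carried by an irreversible UbcH5B-Ub conjugate, binding of which depends on Src phosphorylation of Cbl-b.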

T-cell [2] = experiment: CD25 cell surface staining on T-cells co-stimulated with anti-CD3 and anti-CD28 antibody (Biological Example 2); assay type: cell-based, human; settings: Homo sapiens, T-cell, primary human total T-cells, baseline = anti-CD3/anti-CD28 stimulated cells without inhibitor, read-out: CD25 staining, Anti-CD3/Anti-CD28 stimulation, fold change over baseline; for fold induction at 0.3 µM: 0.3 μM compound; for fold induction at 1 µM: 1 μM compound; for fold induction at 4 µM: 4 μM compound
Outline: (§1)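 T-cells were stimulated with anti-CD3 antibody alone or with anti-CD28 antibody, in the presence or absence of Cbl-b inhibitor. IL-2 secretion or CD25 surface staining was measured, and values expressed as fold over the uninhibited baseline […].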

Cbl-b [3] = target: T1, Cbl-b; experiment: Cbl-b activity assay (Cbl-b inhibition assay), TR-FRET of Cbl-b interaction with UbcH5B-Ub; assay type: biochemical; settings: assay buffer with 100 mM NaCl, 60 nM Src kinase; read-out: Cbl-b activity IC50
Outline: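 UbcH5B (C85K) conjugated to N-terminally Bodipy-Fluorescein-labeled ubiquitin served as the fluorescent partner. After compound preincubation, Src kinase (60 nM) with 1 mM ATP and 5 mM MgCl2 (final) was added for 1.5 h, followed by a further 1 h incubation. Some values were obtained with 50 mM NaCl and 30 nM Src.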

Cbl-b (residues 36-427) = Cbl-b (residues 36-427) (Homo sapiens, UniProt Q13191); experiment: Cbl-b binding assay (SPR, Biacore T200); settings: 20° C., 1:1 binding model
Outline: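 Steps: capture protein on NeutrAvidin surface; inject compound dilutions (8 or 10 points from 100 or 50 μM) 50 s; allow 90-180 s dissociation; regenerate 20 s with 0.3 M NaCl. Runs at 20° C in HEPES pH 7.5/100 mM NaCl/2% DMSO; 1:1 fitting.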

T-cell [4] = experiment: CD25 cell surface staining on T-cells stimulated with anti-CD3 antibody alone (Biological Example 2); assay type: cell-based; settings: primary human total T-cells, baseline = anti-CD3/anti-CD28 stimulated cells without inhibitor, read-out: CD25 staining, Anti-CD3 stimulation, fold change over baseline; for fold induction at 1 µM: 1 μM compound; for fold induction at 8 µM: 8 μM compound
T-cell [5] = experiment: IL-2 secretion from T-cells co-stimulated with anti-CD3 and anti-CD28 antibody (Biological Example 2); assay type: cell-based, human; settings: Homo sapiens, T-cell, primary human total T-cells, baseline = anti-CD3/anti-CD28 stimulated cells without inhibitor, read-out: IL-2 secretion, Anti-CD3/Anti-CD28 stimulation, fold change over baseline; for fold induction at 0.3 µM: 0.3 μM compound; for fold induction at 1 µM: 1 μM compound; for fold induction at 4 µM: 4 μM compound
Outline: as §1

T-cell [6] = experiment: IL-2 secretion from T-cells stimulated with anti-CD3 antibody alone (Biological Example 2); assay type: cell-based; settings: primary human total T-cells, read-out: IL-2 secretion, Anti-CD3 stimulation, fold change over baseline; for fold induction at 1 µM: 1 μM compound; for fold induction at 8 µM: 8 μM compound

T1 sequence (Q13191 36-427): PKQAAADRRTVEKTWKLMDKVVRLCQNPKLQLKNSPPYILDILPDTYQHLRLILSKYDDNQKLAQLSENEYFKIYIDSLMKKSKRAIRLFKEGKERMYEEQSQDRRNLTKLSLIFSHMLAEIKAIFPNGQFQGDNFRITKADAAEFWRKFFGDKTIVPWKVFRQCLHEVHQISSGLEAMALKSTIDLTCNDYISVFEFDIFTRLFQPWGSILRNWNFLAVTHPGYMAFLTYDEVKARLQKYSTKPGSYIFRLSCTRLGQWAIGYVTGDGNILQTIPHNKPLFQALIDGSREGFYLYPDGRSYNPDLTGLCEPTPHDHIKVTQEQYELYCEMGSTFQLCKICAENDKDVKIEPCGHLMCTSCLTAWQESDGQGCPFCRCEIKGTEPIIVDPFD
Chain of Cbl-b (residues 36-427) (Q13191 36-427): as above

SMILES	IC50 (Cbl-b [1]) [µM]	fold induction at 0.3 µM (T-cell [2])	fold induction at 1 µM (T-cell [2])	fold induction at 4 µM (T-cell [2])	IC50 (Cbl-b [3]) [µM]	Kd (Cbl-b (residues 36-427)) [µM]	fold induction at 1 µM (T-cell [4])	fold induction at 8 µM (T-cell [4])	fold induction at 0.3 µM (T-cell [5])	fold induction at 1 µM (T-cell [5])	fold induction at 4 µM (T-cell [5])	fold induction at 1 µM (T-cell [6])	fold induction at 8 µM (T-cell [6])
C[C@H](Cc1nncn1C)c1cccc(N2Cc3c(cc(CN4C[C@@H](F)[C@@H](O)C4)cc3C(F)(F)F)C2=O)c1 [Compound 418]	≤ 0.1	1.01 to 1.3	1.31 to 1.5	1.31 to 1.5	< 0.1	< 0.1	> 1	> 1	2.51 to 5	5 to 7.5	> 7.5	0.151 to 0.2	> 0.201
CC(O)c1cc2c(c(C(F)(F)F)c1)CN(c1cccc([C@H](C)Cc3nncn3C)c1)C2=O (stereo partly drawn) [Compound 436, 6-(1-hydroxyethyl)-2-(3-((R)-1-(4-methyl-4H-1,2,4-triazol-3-yl)propan-2-yl)phenyl)-4-(trifluoromethyl)isoindolin-1-one]	≤ 0.1	1.01 to 1.3	1.31 to 1.5	1.31 to 1.5	< 0.1	< 0.1	0.801 to 1	> 1	2.51 to 5	5 to 7.5	> 7.5	0.151 to 0.2	> 0.201
CC(O)c1cc2c(c(C(F)(F)F)c1)CN(c1cccc([C@@](C)(F)C(F)(F)c3nncn3C)c1)C2=O (stereo partly drawn) [Compound 446, 6-(1-hydroxyethyl)-2-(3-((R)-1,1,2-trifluoro-1-(4-methyl-4H-1,2,4-triazol-3-yl)propan-2-yl)phenyl)-4-(trifluoromethyl)isoindolin-1-one]	≤ 0.1	1.01 to 1.3	1.01 to 1.3	1.01 to 1.3	< 0.1	0.1 to 0.3	0.801 to 1	> 1	1.01 to 2.5	1.01 to 2.5	5 to 7.5	0.051 to 0.1	> 0.201
Cn1cnnc1C(F)(F)[C@](C)(F)c1cccc(N2Cc3c(cc(CN4CC(F)C4)cc3C(F)(F)F)C2=O)c1 [Compound 451, (R)-6-((3-fluoroazetidin-1-yl)methyl)-2-(3-(1,1,2-trifluoro-1-(4-methyl-4H-1,2,4-triazol-3-yl)propan-2-yl)phenyl)-4-(trifluoromethyl)isoindolin-1-one]	≤ 0.3	1.01 to 1.3	1.01 to 1.3	1.31 to 1.5	0.1 to 0.3	< 0.1	0.801 to 1	> 1	1.01 to 2.5	5 to 7.5	> 7.5	0.101 to 0.15	> 0.201
Cn1cnnc1C(F)(F)[C@](C)(F)c1cccc(N2Cc3c(cc(CN4CC[C@H](S(C)(=O)=O)C4)cc3C(F)(F)F)C2=O)c1 [Compound 457, 6-(((S)-3-(Methylsulfonyl)pyrrolidin-1-yl)methyl)-2-(3-((R)-1,1,2-trifluoro-1-(4-methyl-4H-1,2,4-triazol-3-yl)propan-2-yl)phenyl)-4-(trifluoromethyl)isoindolin-1-one]	≤ 0.1	1.01 to 1.3	1.01 to 1.3	1.01 to 1.3	< 0.1	< 0.1	0.801 to 1	> 1	2.51 to 5	2.51 to 5	> 7.5	0.101 to 0.15	> 0.201
